Literature values, collected in US11278512B2, “Compositions comprising a metal and L-serine, and uses thereof” (Brain Chemistry Labs, priority 2019, dated 2022).

Assays:
[1] = set-up: reduction in ALSFRS (Amyotrophic Lateral Sclerosis Functional Rating Scale): dose or concentration left out as unconfirmed
[2] = tested on: neurofibrillary tangles (NFTs) and β-amyloid plaques

SMILES | reduction in ALSFRS (Amyotrophic Lateral Sclerosis Functional Rating Scale) ([1]; daily dosing with for three months, approximates the reduction achieved by Riluzole) [%] | safety when administered to ALS patients ([1]; up to 90 mg/day) | BMAA-induced microglial activation and proteinopathies along the spine, including deposition of TDP-43 and FUS ([2]; BMAA-induced) | density of neurofibrillary tangles (NFTs) and β-amyloid plaques in the brain ([2]; non-human primates) | misincorporation of BMAA into human neuroproteins; protein misfolding, aggregation and apoptosis induced by BMAA (human neuroproteins)
[Zn] [Zinc, zinc] | ~30 | safe | – | – | –
N[C@@H](CO)C(=O)O [L-serine] | – | – | blocks | decreases the density | blocks misincorporation
